Where two headings read alike, the source gives them in different places.
Tests used:
naïve KB cells = assay: IC50 assay in naïve KB cells; type: cell-based; settings: Homo sapiens; naïve (regular) KB cells
Description: (§1) Naïve human KB cell line were purchased from ATCC and maintained in folic acid free RPMI 1640 media/10% FBS, and 1% of penicillin/streptomycin. To develop the TOP1 inhibitor resistant KB cells, the cells in flask (50-60% confluence) were repeatedly treated with increasing concentration of exatecan, topotecan, SN-38 or irinotecan for over 4 months. The starting TOP1 inhibitor treatment concentration was close to the KB cell's IC90 values. After each treatment, the cells were carefully washed with fresh RPMI 1640 media and left to proliferate for an additional 2-3 days until reaching 50-60% confluence.
(§2) Both naïve and TOP1 inhibitor resistant KB cell were cultured in folic acid-free medium (RPMI1640, ThermoFisher, GIBCO). Cells were plated in opaque 96-well plates at a density of 3×10^3 cells per well (total of 90 μL) and allowed to attach overnight. […] After exposing the TOP1 inhibitors with both types of cells for the same period of time, the cell viability was assessed using the CellTiter-Glo2.0 assay (Promega) according to manufacturer's instructions. Data for both viability and proliferation were plotted using Prism7 software (GraphPad). The resistant factor can be calculated by using the following equation:

[1] = test system: exatecan-resistant KB cells; assay: IC50 assay in exatecan-resistant KB cells; type: cell-based, human; settings: for IC50: Homo sapiens
Description: To develop the TOP1 inhibitor resistant KB cells, the cells in flask (50-60% confluence) were repeatedly treated with increasing concentration of exatecan, topotecan, SN-38 or irinotecan for over 4 months. The starting TOP1 inhibitor treatment concentration was close to the KB cell's IC90 values.
The following day, cells were treated with selected TOP1 inhibitors (e.g., free exatecan) or NDC at suitable concentration ranges. […] The resistant factor can be calculated by using the following equation: […]

[2] = test system: irinotecan-resistant KB cells; assay: IC50 assay in irinotecan-resistant KB cells; type: cell-based, human
Description: as §1, §2

IC50 ([2]; Homo sapiens, irinotecan-resistant KB cells) | Compound | IC50 (naïve KB cells) | resistance of exatecan-resistant versus naïve KB cells [1] | IC50 ([1]; KB, KB cells pretreated 7× with exatecan) | IC50 ([1]; KB cells pretreated 4× with exatecan, read-out: IC50) | resistance of irinotecan-resistant versus naïve KB cells [2]
– | CC[C@@]1(O)C(=O)OCc2c1cc1n(c2=O)Cc2c-1nc1cc(F)c(C)c3c1c2[C@@H](N)CC3 [exatecan] | 2 nM | > 8 × | 16.9 nM | 4 nM | –
3620 nM | CCc1c2c(nc3ccc(OC(=O)N4CCC(N5CCCCC5)CC4)cc13)-c1cc3c(c(=O)n1C2)COC(=O)[C@]3(O)CC [irinotecan] | 668 nM | – | – | – | 5 ×
